Drawing on PubChem BioAssay (NCI), this text covers GI50 and TGI for six compounds.

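Assay format: 96-well plates, 48-hour exposure. GI50 marks 50% less growth. TGI: total growth inhibition.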

Some test systems named below: EKVX NSCLC; HCC-2998 colon; LOX IMVI melanoma; NCI-H460 lung; RXF 393 renal; SK-MEL-2 melanoma; SW-620 colon; T-47D breast; U251 CNS; NCI-H23 lung.
Common to all, as to experiment: DTP human tumour cell line panel, 48 h

With `Cc1cc2c(C(N)=O)cccc2n1-c1nc2c(c(NCc3ccccc3)n1)CCCN2`, the GI50 was 256 nM with EKVX NSCLC; 0.17 µM in the assay with HCC-2998 colon; 0.0517 µM with LOX IMVI melanoma; 0.232 µM with NCI-H460 lung; 126 nM with RXF 393 renal; 0.112 µM in the assay with SK-MEL-2 melanoma. Further, the figures for the GI50 in the assay with SW-620 colon, in the assay on T-47D breast and in the assay on U251 CNS were 0.219 µM, 185 nM and 179 nM, respectively. Besides, the TGI with EKVX NSCLC turned out to be 630 nM; in the assay on HCC-2998 colon, 0.325 µM; in the assay on LOX IMVI melanoma it was 0.206 µM; in the assay on NCI-H460 lung it was 0.661 µM; with RXF 393 renal, 0.273 µM; with SK-MEL-2 melanoma it was 0.265 µM. Moreover, the values for the TGI in the assay with SW-620 colon, with T-47D breast and in the assay with U251 CNS were 0.507 µM, 0.431 µM and 0.331 µM, respectively.
With `C#CC[C@H](c1nc2cc(Cl)ccc2c(=O)n1Nc1ccccc1)N(CCCN)C(=O)c1cccc(Cl)c1F`, the GI50 with HCC-2998 colon is 0.178 µM; with LOX IMVI melanoma it was 0.325 µM; in the assay with NCI-H23 lung, 0.624 µM; in the assay with NCI-H460 lung, 0.161 µM; with RXF 393 renal, 284 nM; with SK-MEL-2 melanoma it was 0.177 µM. Besides, the GI50 with SW-620 colon was 0.237 µM; in the assay with T-47D breast, 484 nM; in the assay with U251 CNS it was 293 nM. Also, the TGI in the assay with HCC-2998 colon was determined as 1.39 µM; in the assay on LOX IMVI melanoma, 1.84 µM; in the assay on NCI-H23 lung, 11.2 µM; in the assay on NCI-H460 lung, 1.31 µM; with RXF 393 renal, 1.37 µM; with SK-MEL-2 melanoma, 1.29 µM. Also, the concentration for total growth inhibition (TGI) was 1.81 µM with SW-620 colon, 1.98 µM in the assay on T-47D breast and 1.27 µM with U251 CNS.
For `O=C(O)c1ccc(NS(=O)(=O)c2cccc3cccnc23)cc1`, the GI50 in the assay on HCC-2998 colon was above 100 µM; in the assay with LOX IMVI melanoma, above 100 µM; in the assay on NCI-H23 lung, above 100 µM; with NCI-H460 lung, above 100 µM; in the assay on RXF 393 renal it was above 100000 nM; in the assay on SK-MEL-2 melanoma, above 100 µM. For the same compound, the GI50 was above 100 µM with SW-620 colon, above 100000 nM with T-47D breast and above 100000 nM with U251 CNS. In addition, the total growth inhibition concentration (TGI) with HCC-2998 colon, with LOX IMVI melanoma, in the assay on NCI-H23 lung, in the assay on NCI-H460 lung, in the assay with RXF 393 renal and in the assay with SK-MEL-2 melanoma was above 100 µM throughout. Further, the TGI in the assay on SW-620 colon, in the assay with T-47D breast and in the assay with U251 CNS was above 100 µM in each case.
For the compound `COc1ccc(C2=C(c3cn(C)c4ccccc34)C(=O)NC2=O)cc1OC`, the GI50 in the assay on HCC-2998 colon was above 22.3 µM; with LOX IMVI melanoma it was 8.12 µM; with NCI-H23 lung, 10.3 µM; in the assay with NCI-H460 lung, 8.52 µM; in the assay on RXF 393 renal, 6440 nM; in the assay on SK-MEL-2 melanoma it was 6.18 µM. In addition, the values for the GI50 in the assay with SW-620 colon, in the assay on T-47D breast and with U251 CNS were 6.96 µM, 7210 nM and 7620 nM, respectively. For the same compound, the TGI in the assay on HCC-2998 colon was above 25 µM; in the assay with LOX IMVI melanoma, above 25 µM; in the assay with NCI-H23 lung, above 25 µM; in the assay with NCI-H460 lung, above 25 µM; in the assay with RXF 393 renal, above 25 µM; in the assay on SK-MEL-2 melanoma, above 18.6 µM. Further, the TGI in the assay on SW-620 colon, in the assay with T-47D breast and with U251 CNS was above 25 µM in each case.
As for `Cc1nn2c(/C=C3/C(=O)Nc4ccc(Cl)cc43)c(-c3ccccc3)nc2s1`, the GI50 in the assay with HCC-2998 colon is 9.59 µM; in the assay on LOX IMVI melanoma, 3.52 µM; with NCI-H23 lung it was 4.1 µM; in the assay with NCI-H460 lung it was 3.18 µM; in the assay with RXF 393 renal, 1910 nM; with SK-MEL-2 melanoma, 4.04 µM. The GI50 is 4.51 µM in the assay with SW-620 colon, 1710 nM in the assay with T-47D breast and 1730 nM in the assay with U251 CNS. The TGI with HCC-2998 colon is 37 µM; in the assay on LOX IMVI melanoma, 14.8 µM; with NCI-H23 lung, above 100 µM; in the assay on NCI-H460 lung, 11.7 µM; in the assay on RXF 393 renal it was 4.71 µM; in the assay on SK-MEL-2 melanoma it was 18.4 µM. Moreover, the TGI in the assay on SW-620 colon was determined as 19.7 µM; in the assay on T-47D breast, 11.5 µM; in the assay with U251 CNS, 3.71 µM.
For the compound `CO/N=C1/NC(=O)/C(=C/c2ccc3ncccc3c2)S1`, the GI50 in the assay with HCC-2998 colon was above 25 µM; with LOX IMVI melanoma, 12.8 µM; in the assay with NCI-H23 lung it was 12.2 µM; with NCI-H460 lung, 9.08 µM; with RXF 393 renal, 9810 nM; in the assay on SK-MEL-2 melanoma, 12.1 µM. Further, the GI50 in the assay on SW-620 colon was above 25 µM; in the assay on T-47D breast, 4460 nM; with U251 CNS, 9390 nM. The TGI in the assay with HCC-2998 colon, in the assay on LOX IMVI melanoma, with NCI-H23 lung, in the assay with NCI-H460 lung, in the assay on RXF 393 renal and in the assay on SK-MEL-2 melanoma was above 25 µM throughout. In addition, the values for the TGI with SW-620 colon, with T-47D breast and with U251 CNS were above 25 µM, above 20.2 µM and above 25 µM, respectively.

By GI50 is commonly meant the concentration at which growth is held to half of that of the control. Usually TGI stands for the concentration at which net growth stops. Low readings indicate more potent growth arrest, high ones less potent growth arrest.
